Source: ChEMBL document CHEMBL4270599, “Synthesis of a 3'-C-ethynyl-β-d-ribofuranose purine nucleoside library: Discovery of C7-deazapurine analogs as potent antiproliferative nucleosides” (Eur J Med Chem, 2018)

Legend:
[1] = system: EKVX; test: Cytotoxicity against human EKVX cells after 48 hrs by SRB assay; format: functional
[2] = system: U-251; test: Cytotoxicity against human U251 cells after 48 hrs by SRB assay; format: functional; details: U-251, 48 h, read-out: LC50 (the source's name)
[3] = system: SK-MEL-2; test: Cytotoxicity against human SK-MEL-2 cells after 48 hrs by SRB assay; format: functional; details: SK-MEL-2, 48 h
[4] = system: SK-MEL-5; test: Cytotoxicity against human SK-MEL-5 cells after 48 hrs by SRB assay; format: functional; details: SK-MEL-5, 48 h
[5] = system: A498; test: Cytotoxicity against human A498 cells after 48 hrs by SRB assay; format: functional; details: A498, 48 h
[6] = system: ACHN; test: Cytotoxicity against human ACHN cells after 48 hrs by SRB assay; format: functional
[7] = system: DU-145; test: Cytotoxicity against human DU145 cells after 48 hrs by SRB assay; format: functional; details: DU-145, 48 h
[8] = system: MCF7; test: Cytotoxicity against human MCF7 cells after 48 hrs by SRB assay; format: functional; details: MCF7, 48 h
[9] = system: SW-620; test: Growth inhibition of human SW620 cells assessed as cell growth at 10^-8 M incubated for 48 hrs by sulforhodamine B assay relative to control; format: functional; details: SW-620, 48 h, read-out: Activity
[10] = system: M14; test: Growth inhibition of human M14 cells assessed as cell growth at 10^-8 M incubated for 48 hrs by sulforhodamine B assay relative to control; format: functional; details: M14, 48 h, read-out: Activity
[11] = system: MDA-MB-435; test: Growth inhibition of human MDA-MB-435 cells assessed as cell growth at 10^-8 M incubated for 48 hrs by sulforhodamine B assay relative to control; format: functional; details: MDA-MB-435, 48 h, read-out: Activity
[12] = system: SK-MEL-28; test: Growth inhibition of human SK-MEL-28 cells assessed as cell growth at 10^-8 M incubated for 48 hrs by sulforhodamine B assay relative to control; format: functional; details: SK-MEL-28, 48 h, read-out: Activity
[13] = system: OVCAR-3; test: Growth inhibition of human OVCAR3 cells assessed as cell growth at 10^-8 M incubated for 48 hrs by sulforhodamine B assay relative to control; format: functional; details: OVCAR-3, 48 h, read-out: Activity
[14] = system: TK-10; test: Growth inhibition of human TK10 cells assessed as cell growth at 10^-8 M incubated for 48 hrs by sulforhodamine B assay relative to control; format: functional; details: TK-10, 48 h, read-out: Activity
[15] = system: UO-31; test: Growth inhibition of human UO31 cells assessed as cell growth at 10^-8 M incubated for 48 hrs by sulforhodamine B assay relative to control; format: functional; details: UO-31, 48 h, read-out: Activity
[16] = system: NCI-H226; test: Growth inhibition of human NCI-H226 cells assessed as cell growth at 10^-7 M incubated for 48 hrs by sulforhodamine B assay relative to control; format: functional; details: NCI-H226, 48 h, read-out: Activity
[17] = system: KM12; test: Growth inhibition of human KM12 cells assessed as cell growth at 10^-7 M incubated for 48 hrs by sulforhodamine B assay relative to control; format: functional; details: KM12, 48 h, read-out: Activity
[18] = system: M14; test: Growth inhibition of human M14 cells assessed as cell growth at 10^-7 M incubated for 48 hrs by sulforhodamine B assay relative to control; format: functional; details: M14, 48 h, read-out: Activity
[19] = system: OVCAR-3; test: Growth inhibition of human OVCAR3 cells assessed as cell growth at 10^-7 M incubated for 48 hrs by sulforhodamine B assay relative to control; format: functional; details: OVCAR-3, 48 h, read-out: Activity
[20] = system: NCI/ADR-RES; test: Growth inhibition of human NCI/ADR-RES cells assessed as cell growth at 10^-7 M incubated for 48 hrs by sulforhodamine B assay relative to control; format: functional; details: read-out: Activity
[21] = system: ACHN; test: Growth inhibition of human ACHN cells assessed as cell growth at 10^-7 M incubated for 48 hrs by sulforhodamine B assay relative to control; format: functional; details: read-out: Activity
[22] = system: Hs-578T; test: Growth inhibition of human Hs 578T cells assessed as cell growth at 10^-7 M incubated for 48 hrs by sulforhodamine B assay relative to control; format: functional; details: read-out: Activity
[23] = system: HOP-62; test: Growth inhibition of human HOP62 cells assessed as cell growth at 10^-6 M incubated for 48 hrs by sulforhodamine B assay relative to control; format: functional; details: HOP-62, 48 h, read-out: Activity
[24] = system: SF-295; test: Growth inhibition of human SF295 cells assessed as cell growth at 10^-6 M incubated for 48 hrs by sulforhodamine B assay relative to control; format: functional; details: SF-295, 48 h, read-out: Activity
[25] = system: SF-539; test: Growth inhibition of human SF539 cells assessed as cell growth at 10^-6 M incubated for 48 hrs by sulforhodamine B assay relative to control; format: functional; details: SF-539, 48 h, read-out: Activity
[26] = system: KM12; test: Growth inhibition of human KM12 cells assessed as cell growth at 10^-5 M incubated for 48 hrs by sulforhodamine B assay relative to control; format: functional; details: KM12, 48 h, read-out: Activity
[27] = system: HT-29; test: Growth inhibition of human HT-29 cells assessed as cell growth at 10^-4 M incubated for 48 hrs by sulforhodamine B assay relative to control; format: functional; details: HT-29, 48 h, read-out: Activity
[28] = Antiproliferative activity against HELF cells after 4 days by Coulter counter method; format: cell-based; details: Homo sapiens, 96 h
[29] = read-out: LC50 (the source's name)
[30] = read-out: pLC50 (the source's name) (converted)

C#C[C@@]1(O)[C@@H](CO)O[C@@H](n2cc(Cl)c3c(N)ncnc32)[C@@H]1O
GI50 ([1]; read-out: GI50): 0.26 to 0.262 µM | CC50 [1, 29]: > 100 µM | TGI ([1]; read-out: TGI): 2.41 to 2.46 µM | GI50 ([1]; read-out: pGI50 (converted)): 0.263 µM | CC50 [2]: > 100 µM | GI50 ([3]; read-out: GI50): 0.0835 to 0.146 µM | CC50 [3, 29]: > 100 µM | TGI ([3]; read-out: TGI): 0.268 to 0.481 µM | GI50 ([4]; read-out: GI50): 0.109 to 0.14 µM | TGI ([4]; read-out: TGI): 0.268 to 0.343 µM | GI50 ([5]; read-out: GI50): 0.225 to 0.334 µM | CC50 [5, 29]: 0.842 to 5.62 µM | TGI ([5]; read-out: TGI): 0.435 to 1 µM | GI50 [6]: 0.219 µM | CC50 [6, 30]: > 100 µM | GI50 ([7]; read-out: GI50): 0.109 to 0.159 µM | TGI ([7]; read-out: TGI): 27 to 100 µM | CC50 [7, 30]: > 100 µM | GI50 ([8]; read-out: GI50): 0.0218 to 0.0319 µM | CC50 [8, 29]: 5.32 to 7.11 µM | TGI ([8]; read-out: TGI): 1.04 to 1.16 µM | growth at 0.01 µM [9]: 88 to 91% | growth at 0.01 µM [10]: 93 to 94% | growth at 0.01 µM [11]: 88 to 89% | growth at 0.01 µM [12]: 94% | growth at 0.01 µM [13]: 97 to 101% | growth at 0.01 µM [14]: 96 to 105% | growth at 0.01 µM [15]: 67 to 82% | growth at 0.1 µM [16]: 102 to 108% | growth at 0.1 µM [17]: 55 to 60% | growth at 0.1 µM [18]: 69 to 79% | growth at 0.1 µM [19]: 74 to 77% | growth at 0.1 µM [20]: 37 to 40% | growth at 0.1 µM [21]: 72% | growth at 0.1 µM [22]: 100 to 107% | growth at 1 µM [23]: 2 to 10% | growth at 1 µM [24]: 13 to 20% | growth at 1 µM [25]: 6 to 10% | growth at 10 µM [26]: 5 to 9% | growth at 100 µM [27]: 1% | IC50 [28]: 0.0092 µM
